According to PMC4393935, “A Pharmacokinetic Study of Antimalarial 3,5-Diaryl-2-aminopyridine Derivatives” (Malaria Research and Treatment, 2015):
Read-outs that look alike come from different tables or passages of the source.

Columns and labels:
[1] = Pharmacokinetic study in C57BL/6 mice after oral and intravenous dosing, blood levels by LC-MS/MS; format: in vivo; conditions: for T 1/2 (apparent terminal half-life) / Cmax / half-life / AUC(0-inf) / clearance / Vd: mean ± SD of five mice; for Cmax: read-out: C Max (maximum blood concentration); for half-life: read-out: T 1/2 (apparent terminal half-life); for bioavailability: read-out: BA (oral bioavailability); for AUC(0-inf) / clearance / Vd: mouse; for AUC(0-inf): read-out: AUC0–∞ (total exposure) (converted); for clearance: read-out: CL (blood clearance); for Vd: read-out: Vss (volume of distribution)
Description: Male and female C57BL/6 mice (20–30 g) were obtained from the University of Cape Town Medical School Animal Unit. The mice were housed in ventilated cages at room temperature (approximately 22°C) with a constant supply of food and water and were monitored twice daily. The study was authorized by the University of Cape Town's Faculty of Health Science Animal Research Ethics Committee before its commencement (Reference number 012/020). All the work was performed according to the guidelines established by Austin and colleagues.
The compounds (Figure 1) were dissolved in DMSO and diluted further with phosphate buffered saline (PBS) to give a final DMSO concentration of 1%.
Comprehensive PK studies were performed on groups of five animals to determine the pharmacokinetic properties of the test compounds. This involved the oral dosing (200 μL) of 10-week-old C57BL/6 male mice at 20 mg/kg and intravenous dosing (100 μL) under anesthesia at 4 mg/kg via the dorsal penile vein. For the oral dosage a gavage needle was used for the administration of test compounds directly into the lower esophagus or stomach. Blood samples (approximately 30 μL) were collected serially by needle prick on the tail vein near to the tip of the tail at 0, 0.17, 0.5, 1, 2, 3, 5, 7, and 9 hours after dosing. Lithium-heparin-coated tubes were used to collect the blood samples. The collected blood samples were placed on ice immediately after sampling and were frozen at −80°C until analyzed.
The blood samples were brought to room temperature and then mixed by vortexing to ensure homogeneity. Twenty microliters of blood was mixed with 50 μL Milli-Q water and 150 μL acetonitrile. The sample was vortexed for 15 seconds, sonicated for 10 minutes, and centrifuged at 13000 ×g for 5 minutes. The supernatant was transferred to a flat-bottom glass insert and placed in a glass vial for analysis.
The liquid chromatography (LC) system employed was an ultrafast liquid chromatography (UFLC) system (Shimadzu) and the separation of the compounds was performed on a Phenomenex, Luna 5 μm PFP(2), 100 Å, and 50 mm × 2 mm analytical column. For method development, the compounds were prepared at 1 mg/mL stock in methanol and were further diluted with 50% acetonitrile: 0.1% formic acid to make a final concentration of 1 μg/mL. Analyst software version 1.5.2 (AB Sciex) was employed for data acquisition, peak-area integration, and quantitation of compounds in blood samples.
The mobile phase A consisted of 0.1% formic acid in water (v/v) and mobile phase B consisted of acetonitrile. Samples were maintained at 4°C until injection. The flow rate was set at 500 μL/min and the temperature of the column was maintained at 40°C. For the separation of the compounds the mobile phase was increased from 5% to 95% B over 2 minutes and returned to 5% B within 0.1 minutes and then equilibrated for 3 minutes. Calibration curves were derived in each analytical run in duplicate and were employed to extrapolate the concentration of the compounds in the blood samples.
The MS system consisted of an AB Sciex 3200 Q-Trap mass spectrometer which was operated at unit resolution in the multiple reaction monitoring (MRM) mode. The calibration range for all the compounds was between 7.8 and 1000 ng/mL and the accuracy (%Nom) for the calibration curves was between 90.31 and 104.0%.
Noncompartmental analysis was performed on each individual set of data using PK Solutions 2.0 Pharmacokinetic Analysis Software (Summit Research Services, Montrose, USA), which uses an automated Excel-based program. […]

[2] = test system: human Ether-à-go-go-Related Gene (hERG); design: method as in PMID 23189922; conditions: result in words; cited from earlier work
[3] = design: method as in PMID 23189922; conditions: result in words; cited from earlier work
[4] = test system: P. berghei; design: method as in PMID 23189922; conditions: result in words; cited from earlier work
[5] = male Sprague Dawley rats, cited from earlier work
[6] = male, C57BL/6, mouse, whole blood, iv, 4 mg/kg, IV, 4 mg/kg, blood
[7] = male, C57BL/6, mouse, whole blood, oral, oral 20 mg/kg vs IV 4 mg/kg
[8] = male, C57BL/6, mouse, whole blood, po, 20 mg/kg, oral, 20 mg/kg, blood
[9] = male, C57BL/6, mouse, whole blood, po, 20 mg/kg, oral, 20 mg/kg, blood, read-out: T Max
[10] = male, whole blood, IV, 4 mg/kg, blood
[11] = male, whole blood, oral, 20 mg/kg, blood
[12] = oral, 20 mg/kg, blood, 20 mg/kg

T 1/2 (apparent terminal half-life) ([1]; IV, 4 mg/kg, blood) [h] | Cmax [1, 6] [nM] | half-life [1, 6] [h] | bioavailability [1, 7] [%] | Cmax [1, 8] [nM] | half-life [1, 8] [h] | Tmax [1, 9] [h] | AUC(0-inf) [1, 10] [µM·h] | clearance ([1]; male, whole blood, IV, 4 mg/kg) [mL/min/kg] | Vd ([1]; male, whole blood, IV, 4 mg/kg) [L/kg] | AUC(0-inf) [1, 11] [µM·h] | T 1/2 (apparent terminal half-life) ([1]; oral, 20 mg/kg, blood) [h] | Cmax [1, 12] [nM] | Compound | hERG activity compared to the parent compound 3 [2] | metabolic stability [3] | activity in a P. berghei infected mouse model [4] | other results
0.87 ± 0.03 | 2110 ± 60 | 0.68 to 0.87 | 69 ± 19 | 1900 | 2.5 to 3 | ≤ 1 | 1.72 | 83.6 ± 12 | 9.51 ± 1 | 5.99 | 2.53 ± 0.1 | 1920 ± 30 | Nc1ncc(-c2ccc(C(=O)N3CCOCC3)cc2)cc1-c1ccc(C(F)(F)F)cc1 [Compound 1] | reduced hERG activity | showed metabolic stability | displayed activity | T Max ([1]; oral, 20 mg/kg, blood): 1 h
 |  |  |  |  |  |  |  |  |  |  |  |  | COc1ccc(-c2cc(-c3ccc(S(C)(=O)=O)cc3)cnc2N)cn1 [Compound 3] |  |  |  | apparent t 1/2 ([5]; dosed intravenously): 8 h; apparent t 1/2 ([5]; dosed orally): 6.5 h; AUC ([5]; intravenous): 789 µM·min; AUC ([5]; oral): 6880 µM·min; clearance rate [5]: 18.3 mL/min/kg; oral bioavailability [5]: > 100%
0.68 ± 0.6 | 960 ± 60 | 0.68 to 0.87 | 59.7 | 3300 | 2.5 to 3 | ≤ 1 | 1.75 | 92.6 ± 19 | 27 ± 1.3 | 5.23 | 2.96 ± 0.2 | 3340 | CNS(=O)(=O)c1ccc(-c2cnc(N)c(-c3ccc(C(F)(F)F)nc3)c2)cc1 [Compound 2] | reduced hERG activity | showed metabolic stability | displayed activity | Tmax ([1]; male, C57BL/6, mouse, whole blood, po, 20 mg/kg, oral, 20 mg/kg, blood, read-out: time to maximum concentration): ≤ 0.5 h; BA (oral bioavailability) ([1]; oral 20 mg/kg vs IV 4 mg/kg): 60 ± 5%
